Test results taken from patent US20150119395A1, “NOVEL TRIAZOLE COMPOUNDS THAT MODULATE HSP90 ACTIVITY” (SYNTA PHARMACEUTICALS CORP., priority 2012, published 2015).

Tested on: Her2
Assay: Degradation of Her2 in BT-474 cells, SDS-PAGE/immunoblot, Method 1
Assay type: cell-based, human
Conditions: 0.5 μM, overnight in DMEM medium
Procedure: BT-474 cells were treated with 0.5 μM, 2 μM, or 5 μM of 17AAG (a positive control) or 0.5 μM, 2 μM, or 5 μM of a compound of the invention overnight in DMEM medium. After treatment, each cytoplasmic sample was prepared from 1×10^6 cells by incubation of cell lysis buffer (#9803, Cell Signaling Technology) on ice for 10 minutes. The resulting supernatant used as the cytosol fractions was dissolved with sample buffer for SDS-PAGE and run on a SDS-PAGE gel, blotted onto a nitrocellulose membrane by using semi-dry transfer. Non-specific binding to nitrocellulose is blocked with 5% skim milk in TBS with 0.5% Tween at room temperature for 1 hour, then probed with anti-Her2/ErB2 mAb (rabbit IgG, #2242, Cell Signaling) and anti-Tubulin (T9026, Sigma) as housekeeping control protein. HRP-conjugated goat anti-rabbit IgG (H+L) and HRP-conjugated horse anti-mouse IgG (H+L) were used as secondary Ab (#7074, #7076, Cell Signaling) and LumiGLO reagent, 20× Peroxide (#7003, Cell Signaling) is used for visualization.
BT-474 cells were treated with 0.5 μM, 2 μM, or 5 μM of 17AAG (a positive control) or 0.5 μM, 2 μM, or 5 μM of a compound of the invention overnight in DMEM medium. After treatment, each cytoplasmic sample was prepared from 1×10^6 cells by incubation of cell lysis buffer (#9803, Cell Signaling Technology) on ice for 10 minutes. […]

For `C=CCNC1=C2C[C@@H](C)C[C@H](OC)[C@H](O)[C@@H](C)/C=C(\C)[C@H](OC(N)=O)[C@@H](OC)/C=C\C=C(/C)C(=O)NC(=CC1=O)C2=O` [Compound 17AAG, 17-allylamino-17-demethoxygeldanamycin], the “Degradation of Her2 (Western blot)” value was “partial degradation”.
